Results published in patent publication US8906928B2, “Substituted pyrazolo-pyrrolo-pyridine-dione compounds” (ArQule, Inc., priority 2009, dated 2014).

Key:
Type in all cases: cell-based
PC-3 = experiment: MTS assay (cell growth inhibition), PC-3; conditions: PC-3 cells, 72 hours incubation with test compound; concentration not given
Experimental: (§1) Cells were maintained at 37° C., 5% CO2 in DMEM media supplemented with 1% fetal bovine serum, penicillin/streptomycin and fungizone (Invitrogen). Cells were seeded into 96-well tissue culture plates at 3000 per well and cultured at 37° C. for 18 hours. Test compounds were dissolved and diluted to 300× in DMSO then diluted 1:40 in DMEM. Cells were incubated with test compounds for 72 hours followed by incubation with tetrazolium compound (3-(4,5-dimethylthiazol-2-yl)-5-(3-carboxymethoxyphenyl)-2-(4-sulfophenyl)-2H-tetrazolium, inner salt; MTS) and the electron coupling reagent, phenazine methosulfate (PMS) for 4 hours. […] The ability of compounds to inhibit cell growth in this assay is correlated with the reduction of dehydrogenase enzyme activity found in metabolically active cells. The measurement of the absorbance of the formazan was assessed using an ENVISION™ (Perkin Elmer) microplate reader at 492 nm. The calculated IC50 value is the concentration of the test compound that causes a 50% decrease in the absorbance.

DLD-1 = experiment: MTS assay (cell growth inhibition), DLD-1; conditions: DLD-1 cells, 72 hours incubation with test compound; concentration not given
Experimental: as §1

PACA-2 = experiment: MTS assay (cell growth inhibition), PACA-2; conditions: PACA-2 cells, 72 hours incubation with test compound; concentration not given
Experimental: as §1

NCI-H1299 = experiment: MTS assay (cell growth inhibition), NCI-H1299; conditions: NCI-H1299 cells, 72 hours incubation with test compound; concentration not given
Experimental: as §1

Kato III = experiment: MTS assay (cell growth inhibition), Kato III; conditions: Kato III cells, 72 hours incubation with test compound; concentration not given
Experimental: as §1

MDA-MB = experiment: MTS assay (cell growth inhibition), MDA-MB; conditions: MDA-MB cells, 72 hours incubation with test compound; concentration not given
Experimental: as §1

Cc1cccc(N(CCC#N)CCN2C(=O)c3cnc4[nH]ncc4c3C2=O)c1 [Example 134, 3-{[2-(6,8-dioxo-6,8-dihydropyrazolo[3,4-b]pyrrolo[3,4-d]pyridin-7(3H)-yl)ethyl](3-methylphenyl)amino}propanenitrile]
MTS CELL KILL DATA (% INHIBITION) PC-3 (PC-3): C (C = <50% INHIBITION) | MTS CELL KILL DATA (% INHIBITION) DLD-1 (DLD-1): C (C = <50% INHIBITION) | MTS CELL KILL DATA (% INHIBITION) PACA-2 (PACA-2): C (C = <50% INHIBITION) | MTS CELL KILL DATA (% INHIBITION) NCI-H1299 (NCI-H1299): C (C = <50% INHIBITION) | MTS CELL KILL DATA (% INHIBITION) Kato III (Kato III): C (C = <50% INHIBITION) | MTS CELL KILL DATA (% INHIBITION) MDA-MB (MDA-MB): C (C = <50% INHIBITION)

C[C@@H](CN1C(=O)c2cnc3[nH]ncc3c2C1=O)c1ccccc1 [Example 82, 7-[(2R)-2-phenylpropyl]pyrazolo[3,4-b]pyrrolo[3,4-d]pyridine-6,8(3H,7H)-dione]
MTS CELL KILL DATA (% INHIBITION) PC-3 (PC-3): A (A = 80-100% INHIBITION) | MTS CELL KILL DATA (% INHIBITION) DLD-1 (DLD-1): C (C = <50% INHIBITION) | MTS CELL KILL DATA (% INHIBITION) PACA-2 (PACA-2): C (C = <50% INHIBITION) | MTS CELL KILL DATA (% INHIBITION) NCI-H1299 (NCI-H1299): C (C = <50% INHIBITION) | MTS CELL KILL DATA (% INHIBITION) Kato III (Kato III): C (C = <50% INHIBITION) | MTS CELL KILL DATA (% INHIBITION) MDA-MB (MDA-MB): A (A = 80-100% INHIBITION)

O=C1c2cnc3[nH]ncc3c2C(=O)N1Cc1c(F)ccc(Cl)c1Cl [Example 97, 7-(2,3-dichloro-6-fluorobenzyl)pyrazolo[3,4-b]pyrrolo[3,4-d]pyridine-6,8(3H,7H)-dione]
MTS CELL KILL DATA (% INHIBITION) PC-3 (PC-3): C (C = <50% INHIBITION) | MTS CELL KILL DATA (% INHIBITION) DLD-1 (DLD-1): C (C = <50% INHIBITION) | MTS CELL KILL DATA (% INHIBITION) PACA-2 (PACA-2): C (C = <50% INHIBITION) | MTS CELL KILL DATA (% INHIBITION) NCI-H1299 (NCI-H1299): C (C = <50% INHIBITION) | MTS CELL KILL DATA (% INHIBITION) Kato III (Kato III): C (C = <50% INHIBITION) | MTS CELL KILL DATA (% INHIBITION) MDA-MB (MDA-MB): C (C = <50% INHIBITION)

COc1cc(Cl)ccc1CN1C(=O)c2cnc3[nH]ncc3c2C1=O [Example 33, 7-(4-chloro-2-methoxybenzyl)pyrazolo[3,4-b]pyrrolo[3,4-d]pyridine-6,8(3H,7H)-dione]
MTS CELL KILL DATA (% INHIBITION) PC-3 (PC-3): C (C = <50% INHIBITION) | MTS CELL KILL DATA (% INHIBITION) DLD-1 (DLD-1): C (C = <50% INHIBITION) | MTS CELL KILL DATA (% INHIBITION) PACA-2 (PACA-2): C (C = <50% INHIBITION) | MTS CELL KILL DATA (% INHIBITION) NCI-H1299 (NCI-H1299): C (C = <50% INHIBITION) | MTS CELL KILL DATA (% INHIBITION) Kato III (Kato III): C (C = <50% INHIBITION) | MTS CELL KILL DATA (% INHIBITION) MDA-MB (MDA-MB): A (A = 80-100% INHIBITION)

O=C1c2cnc3[nH]ncc3c2C(=O)N1CC1CCOC1 (stereo not drawn) [Example 85, 7-(tetrahydrofuran-3-ylmethyl)pyrazolo[3,4-b]pyrrolo[3,4-d]pyridine-6,8(3H,7H)-dione]
MTS CELL KILL DATA (% INHIBITION) PC-3 (PC-3): C (C = <50% INHIBITION) | MTS CELL KILL DATA (% INHIBITION) DLD-1 (DLD-1): C (C = <50% INHIBITION) | MTS CELL KILL DATA (% INHIBITION) PACA-2 (PACA-2): C (C = <50% INHIBITION) | MTS CELL KILL DATA (% INHIBITION) NCI-H1299 (NCI-H1299): C (C = <50% INHIBITION) | MTS CELL KILL DATA (% INHIBITION) Kato III (Kato III): C (C = <50% INHIBITION) | MTS CELL KILL DATA (% INHIBITION) MDA-MB (MDA-MB): C (C = <50% INHIBITION)

Cc1c(C)c(C)c(CN2C(=O)c3cnc4[nH]ncc4c3C2=O)c(C)c1C [Example 8, 7-(pentamethylbenzyl)pyrazolo[3,4-b]pyrrolo[3,4-d]pyridine-6,8(3H,7H)-dione]
MTS CELL KILL DATA (% INHIBITION) PC-3 (PC-3): A (A = 80-100% INHIBITION) | MTS CELL KILL DATA (% INHIBITION) DLD-1 (DLD-1): C (C = <50% INHIBITION) | MTS CELL KILL DATA (% INHIBITION) PACA-2 (PACA-2): C (C = <50% INHIBITION) | MTS CELL KILL DATA (% INHIBITION) NCI-H1299 (NCI-H1299): C (C = <50% INHIBITION) | MTS CELL KILL DATA (% INHIBITION) Kato III (Kato III): C (C = <50% INHIBITION) | MTS CELL KILL DATA (% INHIBITION) MDA-MB (MDA-MB): B (B = 50-79% INHIBITION)

O=C1c2cnc3[nH]ncc3c2C(=O)N1Cc1cccnc1 [Example 38, 7-(pyridin-3-ylmethyl)pyrazolo[3,4-b]pyrrolo[3,4-d]pyridine-6,8(3H,7H)-dione]
MTS CELL KILL DATA (% INHIBITION) PC-3 (PC-3): C (C = <50% INHIBITION) | MTS CELL KILL DATA (% INHIBITION) DLD-1 (DLD-1): A (A = 80-100% INHIBITION) | MTS CELL KILL DATA (% INHIBITION) PACA-2 (PACA-2): A (A = 80-100% INHIBITION) | MTS CELL KILL DATA (% INHIBITION) NCI-H1299 (NCI-H1299): C (C = <50% INHIBITION) | MTS CELL KILL DATA (% INHIBITION) Kato III (Kato III): A (A = 80-100% INHIBITION) | MTS CELL KILL DATA (% INHIBITION) MDA-MB (MDA-MB): A (A = 80-100% INHIBITION)
